Results as given in PubChem BioAssay (NCI).
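These data come from cells grown in 96-well plates and exposed to compound for 48 hours at five concentrations. TGI: concentration producing complete growth inhibition.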

Legend:
Assay in all cases: growth of human tumour cells (NCI), 48 h
[1] = test system: HL-60(TB) leukemia
[2] = test system: COLO 205 colon
[3] = test system: TK-10 renal
[4] = test system: SF-539 CNS
[5] = test system: IGROV1 ovarian
[6] = test system: A498 renal

SMILES	TGI [1]	TGI [2]	TGI [3]	TGI [4]	TGI [5]	TGI [6]
CCC(NC(C)c1ccccc1)C(O)c1ccc(OCc2ccccc2)c(OCc2ccccc2)c1 (stereo not given)	30.2 µM	3.88 µM	32.4 µM	32.8 µM	33.9 µM	39.1 µM
COc1ccc(-c2c(N)n(-c3nc4ccccc4s3)c(=O)c3cc([N+](=O)[O-])ccc23)cc1	> 100 µM	–	> 100 µM	19.6 µM	–	> 100 µM
O=C(NCCCCCCCCNC(=O)c1cc(-c2ccccc2)nc2ccccc12)c1cc(-c2ccccc2)nc2ccccc12	> 100 µM	> 100 µM	> 100 µM	> 100 µM	> 100 µM	> 100 µM
O=C(N=S(NC(=O)c1ccccc1)C(Cl)(Cl)Cl)c1ccccc1 (stereo not given)	13.7 µM	29.4 µM	> 100 µM	48.1 µM	> 49 µM	76.2 µM
COC(=O)C1CC2(CCC1=O)Cc1ccccc1C2=O (stereo not given)	> 100 µM	> 100 µM	> 100 µM	> 100 µM	> 100 µM	–
CC1(C)CC(=O)c2c(nc3ccc4ccccc4c3c2-c2ccc(NC(=O)CCCC(=O)Nc3ccc(-c4c5c(nc6ccc7ccccc7c46)CC(C)(C)CC5=O)cc3)cc2)C1	> 100 µM	> 100 µM	> 100 µM	> 100 µM	> 100 µM	> 100 µM
COC(=O)C1C(OC(=O)c2ccccc2)CC2CCC1N2C(N)=O (stereo not given)	> 100 µM	> 100 µM	–	> 100 µM	> 100 µM	> 100 µM
COc1cc2cc(C(=O)N3CC(CCl)c4ccc(O)cc43)[nH]c2c(OC)c1OC (stereo not given)	–	0.0451 µM	22.4 µM	0.00881 µM	–	–
CC1(CCC2C=CCC2)CCCNC1=S (stereo not given)	> 10 µM	–	> 10 µM	> 10 µM	> 10 µM	> 10 µM
COC(=O)c1ccc2c(O)c(O)ccc2c1	5.06 µM	26.7 µM	36.2 µM	34.2 µM	31.6 µM	47.7 µM
COC(=O)C1=CSC2(S1)C(C(=O)OC)=CSc1c2ssc1=Nc1ccccc1 (stereo not given)	–	4.37 µM	10.4 µM	2.96 µM	4.83 µM	6.54 µM
COc1ccc2[nH]c3c(c2c1)CCn1c-3nc2ccccc2c1=O	> 25 µM	> 25 µM	> 25 µM	> 25 µM	> 25 µM	–
COc1cccc(/C=C2/Sc3scc(-c4ccccc4)[n+]3C2=O)c1O	39.6 µM	> 100 µM	68.4 µM	47.6 µM	38.9 µM	–
O=C(NNC1=NCCN1)c1ccco1	> 100 µM	> 100 µM	> 100 µM	> 100 µM	> 100 µM	–
CC1(C)CS(=O)(=O)CC(C)(C)C(=N/N)/C1=N\N	> 100 µM	> 100 µM	> 100 µM	> 100 µM	> 100 µM	> 100 µM
CN(C(=O)Cc1cc(Cl)c(Cl)cc1N=C=S)[C@H]1CCCC[C@@H]1N1CCCC1	23.8 µM	26.8 µM	23.5 µM	46 µM	28.1 µM	27 µM
Cc1c(/C=N/NC(=S)Nc2ccccc2Cl)c(=O)n(-c2ccccc2)n1C	> 100 µM	> 100 µM	91.7 µM	> 100 µM	> 100 µM	> 100 µM
COC(=O)C1CCC(=O)N1CN(C(C)=O)c1ccccc1 (stereo not given)	> 100 µM	> 100 µM	> 100 µM	> 100 µM	> 100 µM	> 100 µM
O=C(CN1CCNCCN(CC(=O)N2CCCCC2)CCNCC1)N1CCCCC1	69.4 µM	> 100 µM	> 100 µM	> 100 µM	> 100 µM	> 100 µM
CCCCCC/C=C\CCCCCCCCCc1cccc(O)c1C(=O)O	> 100 µM	> 100 µM	> 100 µM	> 100 µM	> 100 µM	> 100 µM
CCCN(C(=O)c1c(Cl)nnc(Cl)c1C(=O)c1cc(Cl)nnc1Cl)c1cc(Cl)nnc1Cl	7.16 µM	18.6 µM	32.2 µM	40 µM	21.2 µM	33.1 µM

SMILES	TGI [1]	TGI [2]	TGI [3]	TGI [4]	TGI [5]	TGI [6]
C1=NCCNCCN=Cc2ccc(cc2)OCc2cccc(n2)COc2ccc1cc2	> 100 µM	> 100 µM	–	> 100 µM	> 100 µM	> 100 µM
Cc1ccc(/C=N/Nc2cnccn2)s1	> 100 µM	> 100 µM	> 100 µM	> 100 µM	> 100 µM	–
CN(C)c1ccc(N=Nc2ccc3nc[nH]c3c2)cc1	> 100 µM	50.4 µM	52.8 µM	36.9 µM	> 100 µM	41.5 µM
N#Cc1c(N)oc(-c2cccc([N+](=O)[O-])c2)c1C#N	65.1 µM	44.7 µM	49.7 µM	57.2 µM	65.3 µM	61.7 µM
CCOC(=O)/C(C(=S)Nc1ccccc1)=C(/N)N1CCCC1	> 100 µM	> 100 µM	> 100 µM	> 100 µM	> 100 µM	> 100 µM
CCOC(=O)CSc1nc(-c2ccccc2)c(C#N)c(=O)[nH]1	> 100 µM	> 100 µM	> 100 µM	> 100 µM	> 100 µM	> 100 µM
CCOC(=O)c1sc2c(c1OC(=O)c1cccs1)c(=O)n(-c1ccccc1)c(=S)n2-c1ccccc1	48.4 µM	35.6 µM	> 100 µM	36 µM	28 µM	18.9 µM
CC(=O)OCC(OC(C)=O)C(OC(C)=O)C(C=NN(C(C)=O)S(=O)(=O)c1ccc(/C=C2\NC(=O)NC2=O)cc1)OC(C)=O (stereo not given)	–	> 100 µM	> 100 µM	> 100 µM	> 100 µM	> 100 µM
COc1c2c(cc3oc(C)cc(=O)c13)OC(=N)C(C(N)=O)C2CC(=O)c1ccc(N)cc1 (stereo not given)	> 100 µM	> 100 µM	> 100 µM	> 100 µM	> 100 µM	> 100 µM
Fc1ccc2nc3n(c2c1)C(c1c(F)cccc1F)SC3 (stereo not given)	53 µM	> 100 µM	> 100 µM	> 100 µM	> 100 µM	> 100 µM
O=c1oc2ccccc2c2c(=O)c3ccc(OC/C(=N/O)c4ccc(Cl)cc4)cc3oc12	28.4 µM	29.1 µM	–	23.8 µM	> 100 µM	15.6 µM
COc1ccc(NS(=O)CCCc2ccccc2)cc1 (stereo not given)	> 100 µM	> 100 µM	> 100 µM	> 100 µM	> 100 µM	–
COc1nc(N)c(NC2OC(CO)C(O)C2O)c(=O)[nH]1 (stereo not given)	> 100 µM	> 100 µM	> 100 µM	> 100 µM	> 100 µM	> 100 µM
COCn1c2ccc(OC(C)=O)cc2c2c(=O)oc(N(C)C)nc21	> 100 µM	> 100 µM	> 100 µM	> 100 µM	> 100 µM	> 100 µM
CCCC(=O)NC1=C(NCC)C(=O)c2ccccc2C1=O	> 100 µM	> 100 µM	> 100 µM	> 100 µM	> 100 µM	–
CC1CCCc2c(C#N)c(N)nc(-c3ccc(Cl)cc3)c21 (stereo not given)	83.3 µM	67.7 µM	> 100 µM	33 µM	56.8 µM	> 100 µM
Cc1ccc(-c2nc3ccc(Cl)cc3[nH]2)cc1	> 100 µM	> 100 µM	> 100 µM	> 100 µM	> 100 µM	–
COC(=O)[C@@H]1CN(C(=O)CCc2ccccc2)C(=O)N1C(=O)OCc1ccccc1	> 100 µM	> 100 µM	> 100 µM	> 100 µM	> 100 µM	> 100 µM
CN(/N=C(\C(=O)O)c1ccccc1)C1=NCCCN1	> 100 µM	> 100 µM	> 100 µM	> 100 µM	> 100 µM	> 100 µM
COc1ccccc1NC(=O)/C(Cc1nc2ccc([N+](=O)[O-])cc2[nH]c1=O)=N\NC(=O)C[N+](C)(C)C	93.1 µM	> 100 µM	> 100 µM	> 100 µM	> 100 µM	–
CC1CC[C@@H](C(C)C)[C@H](Oc2nnc(C3OC(CO)C(O)C3O)o2)C1 (stereo not given in full)	> 100 µM	> 100 µM	> 100 µM	> 100 µM	–	> 100 µM

SMILES	TGI [1]	TGI [2]	TGI [3]	TGI [4]	TGI [5]	TGI [6]
CCC1(CC)CC(=NNS(=O)(=O)c2ccc(C)cc2)C1	> 100 µM	> 100 µM	> 100 µM	> 100 µM	> 100 µM	> 100 µM
O=C(NCc1cccnc1)NCc1cccnc1	> 100 µM	> 100 µM	> 100 µM	> 100 µM	> 100 µM	> 100 µM
CC(=O)Nc1ccccc1SCCSSCCSc1ccccc1NC(C)=O	44.8 µM	40.5 µM	> 100 µM	52.1 µM	46.8 µM	–
CC(=O)OC1C(O)COC(O[C@H]2CC[C@]34C[C@]35CC[C@]3(C)C([C@@]6(C)CC[C@@H](C(C)(C)O)O6)[C@@H](O)C[C@@]3(C)C5C[C@H](OC3OCC(O)C(O)C3O)[C@H]4C2(C)C)C1OC1OCC(O)C(O)C1O (stereo not given in full)	> 100 µM	> 100 µM	> 100 µM	> 100 µM	> 100 µM	> 100 µM
O=c1oc2ccccc2c(Nc2ccc3c(c2)S(=O)(=O)c2ccccc2O3)c1[N+](=O)[O-]	59.2 µM	47.6 µM	62.6 µM	65.2 µM	97.1 µM	–
CSc1nc(N)c(NC2OC(CO)C(O)C2O)c(=O)[nH]1 (stereo not given)	> 100 µM	> 100 µM	> 100 µM	> 100 µM	> 100 µM	> 100 µM
COc1ccc(N2C(=O)C3c4[nH]c5ccc(C)cc5c4C4CCC(C)CC4C3C2=O)cc1 (stereo not given)	–	> 100 µM	> 100 µM	> 100 µM	> 100 µM	85 µM
CC12Nc3ccccc3N1C(=O)c1ccccc12 (stereo not given)	> 100 µM	> 100 µM	> 100 µM	> 100 µM	> 100 µM	> 100 µM
O=c1oc2ccccc2cc1/C=N/N1C(=S)N(c2ccccc2)C(=Nc2ccccc2)C1=Nc1ccccc1	–	> 100 µM	> 100 µM	> 100 µM	> 100 µM	–
NC(N)=N/N=C/c1c(-c2ccccc2)nc2n1ccc1nc(-c3ccccc3)c(/C=N/N=C(N)N)n12	> 100 µM	> 100 µM	> 100 µM	> 100 µM	92.7 µM	> 100 µM
Cc1cc(C)c(C2=NOC(c3ccccc3)(c3cc(=O)n(-c4ccccc4)s3)O2)c(C)c1 (stereo not given)	> 100 µM	63.4 µM	77.1 µM	–	> 100 µM	> 100 µM
CNC(=O)N1CN(c2ccccc2)C2(CCN(CCCC(=O)c3ccc(F)cc3)CC2)C1=O	37.8 µM	22.3 µM	49.5 µM	34 µM	89.1 µM	–
O=C1C2CC=CCC2C(=O)N1n1c(-c2ccccc2)n[nH]c1=O (stereo not given)	–	> 100 µM	> 100 µM	> 100 µM	> 100 µM	> 100 µM
CC1C(c2ccccc2)OP(=O)(OC(C#N)c2ccccc2)N1C (stereo not given)	> 100 µM	> 100 µM	> 100 µM	> 100 µM	> 100 µM	> 100 µM
COc1cc(/C=C2/CCS(=O)(=O)c3ccc(C)cc3C2=O)cc(OC)c1OC	–	16.9 µM	> 44.5 µM	7.05 µM	> 39.4 µM	23.7 µM
[N-]=[N+]=Nc1c(-c2ccccc2)c(Cl)nc2ccccc12	> 100 µM	44.7 µM	> 100 µM	> 100 µM	> 100 µM	72.2 µM
O=[N+]([O-])/C=C1\COCc2cc3c(cc21)OCO3	57.4 µM	42 µM	50 µM	52.4 µM	> 100 µM	42 µM
C=CCOC(=O)/C(=C\c1ccc(OC)c(OC)c1)c1ccc(OC)c(OC)c1	40.3 µM	> 100 µM	> 100 µM	> 100 µM	> 100 µM	> 100 µM
CC1=NN(c2ccccc2)C(=O)/C1=C/c1ccc(O)cc1	> 100 µM	> 100 µM	> 100 µM	> 100 µM	> 100 µM	> 100 µM
O=C(c1ccccc1)c1ccc(COc2ccc(C(c3c(O)c4ccccc4oc3=O)c3c(O)c4ccccc4oc3=O)cc2)cc1	–	39.2 µM	32.8 µM	46.4 µM	28.5 µM	–
